In PMC9603750, “Chalcone-Acridine Hybrid Suppresses Melanoma Cell Progression via G2/M Cell Cycle Arrest, DNA Damage, Apoptosis, and Modulation of MAP Kinases Activity” (International Journal of Molecular Sciences, 2022):

Key:
MCF-10A = experiment: MTT assay (metabolic activity); assay type: cell-based; conditions: Homo sapiens; MCF-10A noncancer cell line, 72 h incubation
Protocol: Cell lines A2058 (human melanoma lymph node metastasis, cat. 91100402) from ECACC (Public Health England, Salisbury, UK) and BLM (human melanoma lung metastasis a gift from prof. K. Smetana, Institute of Anatomy, Charles University in Prague) were cultured in a medium consisting of high glucose Dulbecco’s Modified Eagle’s Medium (DMEM) and sodium pyruvate (GE Healthcare, Piscataway, NJ, USA). The growth medium was supplemented with a 10% fetal bovine serum (FBS) and antibiotic/antimycotic solution 1 × HyClone™ (GE Healthcare, Chicago, IL, USA). The MCF-10A (human mammary epithelial cells) cell line was cultured in a medium consisting of high glucose Dulbecco’s Modified Eagle’s Medium F12 (DMEM/F12) (Biosera, Kansas City, MO, USA). The growth medium was supplemented with a 10% FBS, antibiotic/antimycotic solution 1 × HyClone™ (GE Healthcare, Chicago, IL, USA), epidermal growth factor (EGF) (20 ng/mL final), hydrocortisone (0.5 μg/mL final) and insulin (10 μg/mL final) (Sigma-Aldrich Chemie, Steinheim, Germany). Cells were cultured in humidified air at 37 °C with atmosphere containing 5% CO2.
The half-maximal inhibitory concentration values (IC50) and metabolism inhibition of tested synthetic chalcone derivatives were determined by MTT (3-(4,5-di-methylthiazol-2-yl)2,5-diphenyltetrazolium bromide) colorimetric assay (Sigma-Aldrich Chemie, Steinheim, Germany). Tested cell lines were seeded at a density of 5 × 10^3 cells/well in 96-well culture plates. After 24 h, the tested chalcones in concentrations of 100, 50 and 10 μmol/L were added and incubation proceeded for the next 72 h. In the next step, 10 μL of MTT (5 mg/mL) was added to each well containing cells and incubated for another 4 h at 37 °C during which MTT was metabolized to insoluble formazan in cells. After 4 h, 100 μL of a 10% sodium dodecyl sulphate (SDS) was added to each well and another 24 h were allowed for the formazan crystals to dissolve. The metabolic activity of cells was evaluated by measuring the absorbance at wavelength 540 nm using the automated Cytation™ 3 Cell Imaging Multi-Mode Reader (Biotek, Winooski, VT, USA). Three independent analyses were performed.

A2058 melanoma cells [1] = experiment: Apoptosis detection, Annexin V/PI staining; assay type: cell-based, human; conditions: A2058, 1C 10 μmol/L
Excerpt: (§1) Phosphatidylserine (PS) is an anionic phospholipid located on the cytoplasmic surface of the plasma membrane in cells with intact membranes. The externalization of PS from the inner to outer surface of the lipid bilayer of plasma membrane is a typical marker of apoptosis in the early stages. Annexin V/PI double staining is a method for dividing cells into populations of living (An^−/PI^− Q3), early apoptotic (An^+/PI^− Q4), late apoptotic/necrotic (An^+/PI^+ Q2) and dead (An^−/PI^+ Q1). […] Furthermore, the concomitant decrease of living cells and the increased number of dead cells were also observed in a time-dependent pattern (Table 4, Figure 4).
(§2) To perform apoptosis detection, A2058 and BLM melanoma cells were seeded in Petri dishes at a density of 1 × 10^5/dish and treated with chalcone 1C and DMSO as the negative control at the same concentrations for 24, 48 and 72 h. In the next step, adherent and floating melanoma cells were harvested, centrifuged and pellets were resuspended in washing buffer (PBS). Resuspended melanoma cells were stained with Annexin V-Alexa Fluor® 647 antibody (Thermo Scientific, Rockford, IL, USA) in binding buffer for 20 min in the dark at room temperature. Finally, melanoma cells were washed, stained with 1 μL of propidium iodide (final concentration 25 μg/mL) for 5 min and analysed using a BD FACSCalibur^TM Flow Cytometer (Becton Dickinson, San Jose, CA, USA). Three independent analyses were performed.

BLM melanoma cells [2] = experiment: Apoptosis detection, Annexin V/PI staining; assay type: cell-based, human; conditions: 1C 20 μmol/L
Excerpt: as §1, §2

A2058 = experiment: BrdU cell proliferation assay; assay type: cell-based, human
Protocol: The BrdU Cell Proliferation Assay is based on the detection of BrdU (5-bromo-2′-deoxyuridine) incorporated into the newly synthesized DNA during the replication process in proliferating cells.
The A2058 (5 × 10^3/well) and BLM (5 × 10^3/well) melanoma cells were plated in a 96-well culture plate in 80 μL suitable medium. Twenty-four hours after cell seeding, different concentrations of the chalcone 1C were added ranging from 5–20 μmol/L. After 48 h of treatment, BrdU labelling solution was added to melanoma cells and incubated for another 24 h at 37 °C followed by fixation and incubation with anti-BrdU peroxidase conjugate solution for an additional 90 min in the dark at room temperature. Cells were then washed 3× with washing solution and incubated with TMB (tetramethylbenzidine) substrate solution (all Roche, Basel, Switzerland) for 5 to 30 min according to colour intensity. Finally, the stop solution (25 μL 1 M H2SO4) was added, and the incorporated BrdU was detected with an automated Cytation™ 3 Cell Imaging Multi-Mode Reader (Biotek, Winooski, VT, USA) at 450 nm. Three independent analyses were performed.

A2058 melanoma cells [3] = experiment: AO/PI viability assay (fluorescence microscopy); assay type: cell-based, human; conditions: A2058, 1C 10 μmol/L, 24, 48 and 72 h
Protocol: (§3) The A2058 and BLM melanoma cells were seeded at a density of 5 × 10^4/well into 6-well culture plates. Twenty-four hours after seeding, A2058 cells were treated with chalcone 1C at 10 μmol/L concentration, BLM cells at 20 μmol/L concentration and both melanoma cell lines were treated with vehicle (DMSO) at the same concentrations. At 24, 48 and 72 h after treatment, the culture medium was removed, the cells were washed with washing buffer (PBS) and fixed with 4% paraformaldehyde (pH 7.2) for 30 min. In the next step, the paraformaldehyde was removed, the cells were washed with PBS and the staining solution (10 μg/mL acridine orange and 10 μg/mL propidium iodide, Sigma-Aldrich) was added to each well for 1 h incubation at room temperature in the dark. Finally, the staining solution was removed, the cells were washed with PBS and apoptosis was observed using an automated Cytation™ 3 Cell Imaging Multi-Mode Reader (Biotek, Winooski, VT, USA).

BLM melanoma cells [4] = experiment: AO/PI viability assay (fluorescence microscopy); assay type: cell-based, human; conditions: 1C 20 μmol/L, 24, 48 and 72 h
Protocol: as §3

Structure (SMILES): COc1cccc(OC)c1C(=O)/C=C/c1c2ccccc2nc2ccccc12 [Compound 1C, (2E)-3-(acridin-9-yl)-1-(2,6-dimethoxyphenyl)prop-2-en-1-one]
- IC50 (MCF-10A): 36.5 ± 0.87 µM
- Dead An−/PI+ (A2058 melanoma cells [1]; 24 h): 3.41 ± 0.46
- Early Apo An+/PI− (A2058 melanoma cells [1]; 24 h): 7.53 ± 1.17
- Late Apo An+/PI+ (A2058 melanoma cells [1]; 24 h): 4.22 ± 0.47
- Live An−/PI− (A2058 melanoma cells [1]; 24 h): 84.80 ± 0.24
- Dead An−/PI+ (A2058 melanoma cells [1]; 48 h): 5.94 ± 0.52
- Early Apo An+/PI− (A2058 melanoma cells [1]; 48 h): 11.52 ± 0.42
- Late Apo An+/PI+ (A2058 melanoma cells [1]; 48 h): 13.85 ± 2.57
- Live An−/PI− (A2058 melanoma cells [1]; 48 h): 68.70 ± 1.63
- Dead An−/PI+ (A2058 melanoma cells [1]; 72 h): 11.65 ± 1.43
- Early Apo An+/PI− (A2058 melanoma cells [1]; 72 h): 13.30 ± 1.71
- Late Apo An+/PI+ (A2058 melanoma cells [1]; 72 h): 23.05 ± 4.94
- Live An−/PI− (A2058 melanoma cells [1]; 72 h): 52.00 ± 5.23
- Dead An−/PI+ (BLM melanoma cells [2]; 24 h): 6.25 ± 0.20
- Early Apo An+/PI− (BLM melanoma cells [2]; 24 h): 12.96 ± 0.77
- Late Apo An+/PI+ (BLM melanoma cells [2]; 24 h): 6.90 ± 0.09
- Live An−/PI− (BLM melanoma cells [2]; 24 h): 73.90 ± 0.49
- Dead An−/PI+ (BLM melanoma cells [2]; 48 h): 5.81 ± 0.86
- Early Apo An+/PI− (BLM melanoma cells [2]; 48 h): 20.25 ± 1.27
- Late Apo An+/PI+ (BLM melanoma cells [2]; 48 h): 12.40 ± 0.49
- Live An−/PI− (BLM melanoma cells [2]; 48 h): 61.50 ± 2.61
- Dead An−/PI+ (BLM melanoma cells [2]; 72 h): 5.90 ± 1.47
- Early Apo An+/PI− (BLM melanoma cells [2]; 72 h): 25.95 ± 3.80
- Late Apo An+/PI+ (BLM melanoma cells [2]; 72 h): 28.55 ± 3.23
- Live An−/PI− (BLM melanoma cells [2]; 72 h): 39.60 ± 0.90
- IC50 (A2058; Homo sapiens, A2058, 72 h incubation): 8.4 ± 0.05 µM
- Selectivity index, A2058 (BrdU) (A2058; MCF-10A vs A2058, calculated on the basis of BrdU results): 3.9
- Proliferation and viability (AO/PI staining) (A2058 melanoma cells [3]): significant decrease in proliferation and viability
- Proliferation and viability (AO/PI staining) (BLM melanoma cells [4]): significant decrease in proliferation and viability
